Measured values taken from patent US20250206759A1, “FUSED RING COMPOUND, PHARMACEUTICAL COMPOSITION CONTAINING SAME, AND USE OF FUSED RING COMPOUND” (CHENGDU HYPERWAY PHARMACEUTICALS CO., LTD., priority 2022, published 2025).
Like-named read-outs stand apart in the source and are kept apart here.

Columns and labels:
[1] = test system: KRas G12D-mediated ERK phosphorylation; assay: Inhibition of KRas G12D-mediated ERK phosphorylation in AGS cells; type: cell-based; conditions: read-out: AGS-pERK IC50
Experimental: Day 1: AGS cells were seeded into 384-well cell culture plates and cultured overnight in a 37° C., 5% CO2 incubator.
Day 2: The compounds were added to the plates using Echo550 and incubated for 3 h in a 37° C., 5% CO2 incubator. Then cells were fixed with paraformaldehyde, permeated with methanol, and blocked with the blocking solution. Finally, a mixed solution of primary antibodies (rabbit anti pERK, mouse anti GAPDH) was added, and the mixture was incubated at 4° C. overnight.
Day 3: The mixed solution of primary antibodies was discarded, and a mixed solution of secondary antibodies (goat anti rabbit 800CW, goat anti mouse 680RD) was added. The mixture was incubated at room temperature in the dark. Finally, the cell culture plate was washed with PBST, and then inverted for 1 minute of centrifugation. The fluorescence signal values were read with Odyssey CLx.
ERK phosphorylation was calculated according to the following formula: […]
X: log value of compound concentration.
Y: average value of relative expression of p-ERK between replicate wells.

[2] = Pharmacokinetics of compounds in rats (oral); type: in vivo, SD rats; conditions: male SD rats
Experimental: Male SD rats were purchased from Shanghai SIPPR-Bk Lab Animal Co., Ltd. Each test compound was administered orally (3 rats per group) once to SD rats for pharmacokinetic study. The test compounds were prepared on the day of administration. The test compounds were suspended in 5% DMSO+95% saline, and then vortexed for 2 min and ultrasonicated for 5 min to prepare the administration system. The animals were fasted for 10-14 h before oral administration, and the feeding was resumed 4 h after administration. After oral administration by gavage, pharmacokinetic samples were collected from SD rats through the jugular vein. The collection time points were: before administration, 15 min, 30 min, 1 h, 2 h, 4 h, 6 h, 8 h and 24 h after administration. Three whole blood samples were collected at each time point, with a collection volume of about 0.2 mL, and anticoagulated with sodium heparin. After blood samples were collected, they were immediately placed on ice and centrifuged to separate plasma within 1 hour (centrifugation conditions: 6800 rpm, 6 min, 2-8° C.). The collected plasma was stored in a −80° C. refrigerator before analysis.

[3] = male, SD, rat, plasma, po, 100 mg/kg, 100 mg/kg, read-out: AUC
[4] = male, SD, rat, plasma, po, 100 mg/kg, 100 mg/kg, read-out: Cmax
[5] = male, SD, rat, plasma, po, 10 mg/kg, 10 mg/kg, read-out: AUC
[6] = male, SD, rat, plasma, po, 10 mg/kg, 10 mg/kg, read-out: Cmax

Work on “4-(4-((1R,5S)-3,8-diazabicyclo[3.2.1]octan-3-yl)-2-((3-(1,3-dihydroisobenzofuran-5-yl-1,1,3,3-d4)tetrahydro-1H-pyrrolizin-7a(5H)-yl)methoxy)-8-fluoropyridin[4,3-d]pyrimidin-7-yl)naphthalen-2-ol [Example 148]” yielded an IC50 [1] of 12 nM.

With `Cc1ccc([C@H]2CCC3(COc4nc(N5CC6CCC(C5)N6)c5cnc(-c6cc(O)cc7ccc(F)c(F)c67)c(F)c5n4)CCCN23)cc1` (mixture of isomers) [Example 213] the IC50 ([1]; Homo sapiens, AGS) was 1.8 nM.

Compound `C#Cc1c(F)ccc2cc(O)cc(-c3ncc4c(N5CC6CCC(C5)N6)nc(OCC56CCCN5[C@@H](c5ccc(OC(F)(F)F)cc5)CC6)nc4c3F)c12` (mixture of isomers) [Example 214] has an IC50 ([1]; Homo sapiens, AGS) of 1 nM.

For `Oc1cc(-c2ncc3c(N4CC5CCC(C4)N5)nc(OCC45CCCN4[C@@H](c4ccc(C(F)(F)F)c(Cl)c4)CC5)nc3c2F)c2c(F)c(F)ccc2c1` (mixture of isomers) [Example 215], the AUC [2, 3] was 471 ng·h/mL and the Cmax [2, 4] was 128 ng/mL.

With `Oc1cc(-c2ncc3c(N4CC5CCC(C4)N5)nc(OCC45CCCN4[C@@H](c4ccc6c(c4)COC6)CC5)nc3c2F)c2c(F)c(F)ccc2c1` (mixture of isomers) [Example 217] the IC50 ([1]; Homo sapiens, AGS) was 1.3 nM.

`Oc1cc(-c2ncc3c(N4CC5CCC(C4)N5)nc(OCC45CCCN4[C@@H](c4ccc6ccccc6c4)CC5)nc3c2F)c2c(F)c(F)ccc2c1` (mixture of isomers) [Example 218] showed an IC50 ([1]; Homo sapiens, AGS) of 2.4 nM.

With `Oc1cc(-c2ncc3c(N4CC5CCC(C4)N5)nc(OCC45CCCN4[C@@H](c4ccc(C(F)(F)F)c(C(F)(F)F)c4)CC5)nc3c2F)c2c(F)c(F)ccc2c1` (mixture of isomers) [Example 219] the IC50 ([1]; Homo sapiens, AGS) was 6.2 nM.

In the case of `Oc1cc(-c2ncc3c(N4CC5CCC(C4)N5)nc(OCC45CCCN4[C@@H](c4ccc(F)c(F)c4)CC5)nc3c2F)c2c(F)c(F)ccc2c1` (mixture of isomers) [Example 224], the IC50 ([1]; Homo sapiens, AGS) is reported as 0.7 nM.

In the case of `COc1cc([C@H]2CCC3(COc4nc(N5CC6CCC(C5)N6)c5cnc(-c6cc(O)cc7ccc(F)c(F)c67)c(F)c5n4)CCCN23)ccc1C(F)(F)F` (mixture of isomers) [Example 228], the IC50 ([1]; Homo sapiens, AGS) is reported as 1.9 nM.

Compound `Nc1ccc(C(F)(F)F)c(-c2ncc3c(N4CC5CCC(C4)N5)nc(OCC45CCCN4[C@@H](c4ccc6c(c4)OC(F)(F)O6)CC5)nc3c2F)c1` (mixture of isomers) [Example 234] has an AUC [2, 3] of 1190 ng·h/mL and a Cmax [2, 4] of 182 ng/mL.

`Cc1cc(N)cc(-c2ncc3c(N4CC5CCC(C4)N5)nc(OCC45CCCN4[C@@H](c4ccc6c(c4)OC(F)(F)O6)CC5)nc3c2F)c1C(F)(F)F` (mixture of isomers) [Example 235] gave an IC50 ([1]; Homo sapiens, AGS) of 13 nM.

With `Oc1cc(-c2ncc3c(N4CC5CCC(C4)N5)nc(OCC45CCCN4[C@@H](c4ccc(F)cc4)CC5)nc3c2F)c2c(F)c(F)ccc2c1` (single isomer, unassigned) [Example 193] the IC50 ([1]; Homo sapiens, AGS) was 9.1 nM.

`C#Cc1c(F)ccc2cc(O)cc(-c3ncc4c(N5CC6CCC(C5)N6)nc(OCC56CCCN5[C@@H](c5ccc(F)cc5)CC6)nc4c3F)c12` (single isomer, unassigned) [Example 196] gave an IC50 ([1]; Homo sapiens, AGS) of 1.4 nM.

For `Oc1cc(-c2ncc3c(N4CC5CCC(C4)N5)nc(OCC45CCCN4[C@@H](c4ccc(C(F)(F)F)cc4)CC5)nc3c2F)c2c(F)c(F)ccc2c1` (single isomer, unassigned) [Example 202], the IC50 ([1]; Homo sapiens, AGS) was 1.8 nM.

Compound `C#Cc1c(F)ccc2cc(O)cc(-c3ncc4c(N5CC6CCC(C5)N6)nc(OCC56CCCN5[C@@H](c5ccc(C(F)(F)F)cc5)CC6)nc4c3F)c12` (single isomer, unassigned) [Example 204] has an IC50 ([1]; Homo sapiens, AGS) of 0.78 nM.

`Oc1cc(-c2ncc3c(N4C[C@H]5CC[C@@H](C4)N5)nc(OCC45CCCN4C(c4ccc(C6=CCOCC6)cc4)CC5)nc3c2F)c2ccccc2c1` (stereo partly drawn) [Example 45, 4-(4-((1R,5S)-3,8-diazabicyclo[3.2.1]octan-3-yl)-2-((3-(4-(3,6-dihydro-2H-pyran-4-yl)phenyl)tetrahydro-1H-pyrrolidin-7a(5H)-yl)methoxy)-8-fluoropyrido[4,3-d]pyrimidin-7-yl)naphthalen-2-ol] showed an AUC ([2]; 10 mg/kg) of 94 ng·h/mL and a Cmax ([2]; 10 mg/kg) of 21 ng/mL.

Compound `C#Cc1c(F)ccc2cc(O)cc(-c3ncc4c(N5C[C@H]6CC[C@@H](C5)N6)nc(OCC56CCCN5C(c5ccc(OC)cc5)CC6)nc4c3F)c12` (stereo partly drawn) [Example 52, 4-(4-((1R,5S)-3,8-diazabicyclo[3.2.1]octan-3-yl)-8-fluoro-2-((3-(4-methoxyphenyl)tetrahydro-1H-pyrrolidin-7a(5H)-yl)methoxy)pyrido[4,3-d]pyrimidin-7-yl)-5-ethynyl-6-fluoronaphthalen-2-ol] has an IC50 [1] of 6 nM.

Work on `Oc1cc(-c2ncc3c(N4CC5CCC(C4)C5(F)F)nc(OC[C@@]45CCCN4C[C@H](F)C5)nc3c2F)c2c(F)c(F)ccc2c1` [Example 86] yielded an AUC [2, 5] of 52 ng·h/mL and a Cmax [2, 6] of 21 ng/mL.

Compound `Oc1cc(-c2ncc3c(N4CC5CCC(C4)N5)nc(OCC45CCCN4C(c4cccc(F)c4)CC5)nc3c2F)c2c(F)c(F)ccc2c1` (centres unmarked) [Example 110] has an IC50 ([1]; Homo sapiens, AGS) of 35 nM.

For `COc1ccc(C2CCC3(COc4nc(N5CC6CCC(C5)N6)c5cnc(-c6cc(O)cc7ccc(F)c(F)c67)c(F)c5n4)CCCN23)cc1OC` (centres unmarked) [Example 113], the IC50 ([1]; Homo sapiens, AGS) was 15 nM.

`Oc1cc(-c2ncc3c(N4CC5CCC(C4)N5)nc(OCC45CCCN4C(c4ccc6c(c4)OCO6)CC5)nc3c2F)c2c(F)c(F)ccc2c1` (centres unmarked) [Example 114] gave an IC50 ([1]; Homo sapiens, AGS) of 14 nM.

`Oc1cc(-c2ncc3c(N4CC5CCC(C4)N5)nc(OCC45CCCN4C(c4ccc(OC(F)(F)F)cc4)CC5)nc3c2F)c2ccccc2c1` (centres unmarked) [Example 118] showed an AUC [2, 5] of 224 ng·h/mL, a Cmax [2, 6] of 31 ng/mL and an AUC [2, 3] of 1290 ng·h/mL. For the same compound, the Cmax [2, 4] was 115 ng/mL.

With `Oc1cc(-c2ncc3c(N4CC5CCC(C4)N5)nc(OCC45CCCN4C(c4ccc6occc6c4)CC5)nc3c2F)c2ccccc2c1` (centres unmarked) [Example 131] the AUC [2, 5] was 57 ng·h/mL and the Cmax [2, 6] was 13 ng/mL.

For `Oc1cc(-c2ncc3c(N4CC5CCC(C4)N5)nc(OCC45CCCN4C(c4ccc6c(c4)OC(F)(F)O6)CC5)nc3c2F)c2ccccc2c1` (centres unmarked) [Example 132], the AUC [2, 5] was 240 ng·h/mL and the Cmax [2, 6] was 29 ng/mL.

Compound `Oc1cc(-c2ncc3c(N4C[C@H]5CC[C@@H](C4)N5)nc(OCC45CCCN4C(c4ccc6c(c4)OC(F)(F)O6)CC5)nc3c2F)c2c(F)c(F)ccc2c1` (stereo partly drawn) [Example 140, 4-(4-((1R,5S)-3,8-diazabicyclo[3.2.1]octan-3-yl)-2-((3-(2,2-difluorobenzo[d][1,3]dioxy-5-yl)tetrahydro-1H-pyrrolizin-7a(5H)-yl)methoxy)-8-fluoropyridin[4,3d]pyrimidin-7-yl)-5,6-difluoronaphthalen-2-ol] has an AUC ([2]; 100 mg/kg) of 444 ng·h/mL and a Cmax ([2]; 100 mg/kg) of 113 ng/mL.

In the case of `Oc1cc(-c2ncc3c(N4C[C@H]5CC[C@@H](C4)N5)nc(OCC45CCC(c6ccc(OC(F)(F)F)cc6)N4CC4(CC4)C5)nc3c2F)c2ccccc2c1` (stereo partly drawn) [Example 143, 4-(4-((1R,5S)-3,8-diazabicyclo[3.2.1]octan-3-yl)-8-fluoro-2-((5′-(4-(trifluoromethoxy)phenyl)dihydro-1′H,3′H-spiro[cyclopropan-1,2′-pyrrolizin]-7a′(5′H)-yl)methoxy]pyrido[4,3d]pyrimidin-7-yl)naphthalen-2-ol], the AUC ([2]; 10 mg/kg) is reported as 410 ng·h/mL and the Cmax ([2]; 10 mg/kg) is reported as 32 ng/mL.

`Nc1ccc(OC(F)(F)F)c(-c2ncc3c(N4CC5CCC(C4)N5)nc(OC[C@]45CCCN4C(c4ccc6c(c4)OC(F)(F)O6)CC5)nc3c2F)c1` (stereo partly drawn) [Example 163, 3-(4-((1R,5S)-3,8-diazabicyclo[3.2.1]octan-3-yl)-2-((3-(2,2-difluorobenzo[d][1,3]dioxy-5-yl)tetrahydro-1H-pyrrolizin-7a(5H)-yl)methoxy)-8-fluoropyridin[4,3d]pyrimidin-7-yl)-4-(trifluoromethoxy)] showed an AUC [2, 3] of 2750 ng·h/mL and a Cmax [2, 4] of 388 ng/mL.

Work on `Oc1cc(-c2ncc3c(N4CC5CCC(C4)N5)nc(OCC45CCCN4C(c4ccc(C(F)(F)F)cc4)CC5)nc3c2F)c2ccccc2c1` (centres unmarked) [Example 170] yielded an AUC [2, 5] of 533 ng·h/mL and a Cmax [2, 6] of 39 ng/mL.

In the case of `Oc1cc(-c2ncc3c(N4CC5CCC(C4)N5)nc(OCC45CCCN4C(c4ccc(-c6ccc(F)cc6)cc4)CC5)nc3c2F)c2c(F)c(F)ccc2c1` (centres unmarked) [Example 190], the AUC [2, 3] is reported as 939 ng·h/mL and the Cmax [2, 4] is reported as 66 ng/mL.

With `Oc1cc(-c2ncc3c(N4CC5CCC(C4)N5)nc(OCC45CCCN4C(c4ccc(OC(F)(F)F)cc4)CC5)nc3c2F)c2c(F)c(F)ccc2c1` (centres unmarked) [Example 210] the AUC [2, 3] was 246 ng·h/mL and the Cmax [2, 4] was 145 ng/mL.

Work on `Nc1cc(F)c(C(F)(F)F)c(-c2ncc3c(N4CC5CCC(C4)N5)nc(OCC45CCCN4C(c4ccc6c(c4)OC(F)(F)O6)CC5)nc3c2F)c1` (centres unmarked) [Example 237] yielded an AUC [2, 3] of 1510 ng·h/mL and a Cmax [2, 4] of 362 ng/mL.
